The numbers were not newly measured in patent US4585773A, “Isoindolinyl-alkyl-piperazines” (Bristol-Myers Company, priority 1984, dated 1986), which cites them from elsewhere.

For series [1] the following is noted: background statement; cited from earlier work.
Series [2] deals with Spontaneously Hypertensive rat. As to conditions: Suzuki et al.; cited from earlier work.

`COc1cc2nc(N3CCN(C(=O)c4ccco4)CC3)nc(N)c2cc1OC` [Prazosin, prazosin]: the “antihypertensive and diuretic activity (in words)” value in series [1] is “a very active antihypertensive agent has antidiuretic activity”.

On to `NS(=O)(=O)c1cc2c(cc1Cl)CN(C1CCCCC1)C2=O` [chlorexolone], for which the “effects in the spontaneously hypertensive rat (in words)” value in series [2] was “favorable effects”. The “antihypertensive and diuretic activity (in words)” value in series [1] is “diuretic and hypertensive activity”.

Regarding `NS(=O)(=O)c1cc2c(cc1C(F)(F)F)NCNS2(=O)=O` [hydroflumethiazide], the “effects in the spontaneously hypertensive rat (in words)” value in series [2] was “favorable effects”.
